This assay has as its target T1, SIRT1 (Homo sapiens, UniProt Q96EB6).
T1 sequence (Q96EB6 1-747): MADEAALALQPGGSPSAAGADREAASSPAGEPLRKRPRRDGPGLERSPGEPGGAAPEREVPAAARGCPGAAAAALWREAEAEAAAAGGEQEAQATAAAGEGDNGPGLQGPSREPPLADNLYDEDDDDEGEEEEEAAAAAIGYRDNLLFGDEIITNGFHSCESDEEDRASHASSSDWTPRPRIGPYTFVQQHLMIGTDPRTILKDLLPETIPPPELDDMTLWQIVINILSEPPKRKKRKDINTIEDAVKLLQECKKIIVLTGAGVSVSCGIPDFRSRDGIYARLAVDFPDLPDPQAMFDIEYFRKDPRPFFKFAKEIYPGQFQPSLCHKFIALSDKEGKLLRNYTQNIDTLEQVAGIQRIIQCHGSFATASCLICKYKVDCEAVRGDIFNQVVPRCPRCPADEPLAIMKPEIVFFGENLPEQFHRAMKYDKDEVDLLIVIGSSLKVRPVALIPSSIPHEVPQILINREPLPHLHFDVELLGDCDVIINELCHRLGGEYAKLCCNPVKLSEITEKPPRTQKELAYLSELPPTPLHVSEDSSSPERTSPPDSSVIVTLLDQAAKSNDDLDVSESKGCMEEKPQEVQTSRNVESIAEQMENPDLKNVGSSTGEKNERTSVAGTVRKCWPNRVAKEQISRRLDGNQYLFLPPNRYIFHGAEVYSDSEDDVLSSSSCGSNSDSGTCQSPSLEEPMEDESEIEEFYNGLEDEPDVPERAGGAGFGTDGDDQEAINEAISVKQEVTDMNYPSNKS
Put plainly: TAMRA based mass spectrometry assay of SIRT1 activity. Format: biochemical. The conditions noted are these: TAMRA assay; for TAMRA EC1.5 (μM): concentration giving 150% activation of SIRT1; for Emax: percent maximum fold activation, read-out: TAMRA % Fold Act. Summed up:
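Deacetylation of a biotinylated, TAMRA-tagged p53-based peptide (0.5 μM) by 10 nM His-tagged SIRT1 with 120 μM βNAD+, 25 °C for 25 min, pH 8 Tris-acetate buffer, across a compound concentration range. Quenched by formic acid and read by mass spec as product peptide or OAADPR; activity relative to DMSO reactions, nicotinamide defining maximal inhibition.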

The values that follow come from US9957271B2, “Substituted bicyclic aza-heterocycles and analogues as sirtuin modulators” (GlaxoSmithKline, LLC, priority 2012, dated 2018).

Each structure is given as a SMILES string.

Consider `Cc1cnc(NC(=O)c2cnn3ccc(-c4ccccc4C(F)(F)F)nc23)cn1` [Compound 723, N-(5-methylpyrazin-2-yl)-5-(2-(trifluoromethyl)phenyl)pyrazolo[1,5-a]pyrimidine-3-carboxamide], for which the “TAMRA EC1.5 (μM)” value is “A (EC1.5<1 μM)” and the Emax was no less than 350%.

For the compound `Cc1nccc(C(=O)Nc2cnn3ccc(-c4ccccc4OC(F)(F)F)nc23)n1` [Compound 726], the “TAMRA EC1.5 (μM)” value is on record as “A (EC1.5<1 μM)” and the Emax is no less than 350%.

For the compound `Cc1cc(C(=O)Nc2cnn3ccc(-c4ccccc4OC(F)(F)F)nc23)nc(C)n1` [Compound 727], the “TAMRA EC1.5 (μM)” value is listed as “A (EC1.5<1 μM)” and the Emax was no less than 350%.

In the case of `Cc1nccc(NC(=O)c2c(C)nc3c(C)cc(-c4ccccc4C(F)(F)F)nn23)n1` [Compound 729], the “TAMRA EC1.5 (μM)” value is “A (EC1.5<1 μM)” and the Emax was no less than 350%.

Regarding `Cc1nc2c(C)cc(-c3ccccc3C(F)(F)F)nn2c1C(=O)Nc1ccnc(C2CC2)n1` [Compound 732], the “TAMRA EC1.5 (μM)” value is listed as “A (EC1.5<1 μM)” and the Emax is no less than 350%.

For the compound `COCc1nccc(NC(=O)c2c(C)nc3c(C)cc(-c4ccccc4C(F)(F)F)nn23)n1` [Compound 733], the “TAMRA EC1.5 (μM)” value is “A (EC1.5<1 μM)” and the Emax is no less than 350%.

Turning to `O=C(Nc1cnn2ccc(-c3ccccc3OC(F)(F)F)nc12)c1cnc(O)cn1` [Compound 735], the “TAMRA EC1.5 (μM)” value is given as “B (EC1.5 1-25 μM)” and the Emax was no less than 350%.

For `Cc1nc2c(N3CCOCC3)cc(-c3ccccc3C(F)(F)F)nn2c1C(=O)Nc1cccnn1` [Compound 738, 2-methyl-8-morpholino-N-(pyridazin-3-yl)-6-(2-(trifluoromethyl)phenyl)imidazo[1,2-b]pyridazine-3-carboxamide], the “TAMRA EC1.5 (μM)” value is “A (EC1.5<1 μM)” and the Emax is no less than 350%.

Take `CCOc1ccc(NC(=O)c2c(C)nc3ccc(-c4ccccc4F)nn23)nn1` [Compound 741]: the “TAMRA EC1.5 (μM)” value is “B (EC1.5 1-25 μM)” and the Emax is less than 350%.

As to `CCOc1ccc(NC(=O)c2c(C)nc3ccc(-c4ccccc4Cl)nn23)nn1` [Compound 744], the “TAMRA EC1.5 (μM)” value is reported as “A (EC1.5<1 μM)” and the Emax is less than 350%.

`Cc1nc2c(OC[C@H]3COC(C)(C)O3)cc(-c3ccccc3C(F)(F)F)nn2c1C(=O)Nc1cccnn1` [Compound 745]: the “TAMRA EC1.5 (μM)” value is given as “A (EC1.5<1 μM)” and the Emax is no less than 350%.

Regarding `O=C(Nc1cnn2ccc(-c3ccccc3C(F)(F)F)nc12)c1ncccc1F` [Compound 747], the “TAMRA EC1.5 (μM)” value is reported as “A (EC1.5<1 μM)” and the Emax was no less than 350%.

Turning to `Cc1cc(C)nc(C(=O)Nc2cnn3ccc(-c4ccccc4OC(F)(F)F)nc23)c1` [Compound 750], the “TAMRA EC1.5 (μM)” value is listed as “A (EC1.5<1 μM)” and the Emax was no less than 350%.

Take `COc1cccc(C(=O)Nc2cnn3ccc(-c4ccccc4OC(F)(F)F)nc23)n1` [Compound 751]: the “TAMRA EC1.5 (μM)” value is reported as “A (EC1.5<1 μM)” and the Emax was no less than 350%.

As for `Cc1cnc(NC(=O)c2c(C)nn3ccc(-c4ccccc4C(F)(F)F)nc23)c(C)n1` [Compound 753], the “TAMRA EC1.5 (μM)” value was “B (EC1.5 1-25 μM)” and the Emax is no less than 350%.

On to `Cc1scnc1C(=O)Nc1cnn2ccc(-c3ccccc3OC(F)(F)F)nc12` [Compound 756], for which the “TAMRA EC1.5 (μM)” value is listed as “B (EC1.5 1-25 μM)” and the Emax was no less than 350%.

As to `Cc1cc(C)nc(NC(=O)c2c(C)nc3ccc(-c4ccccc4OC[C@H](O)CO)nn23)c1` [Compound 757], the “TAMRA EC1.5 (μM)” value was “B (EC1.5 1-25 μM)” and the Emax is no less than 350%.

As for `COc1ccc(NC(=O)c2c(C)nc3ccc(-c4cccc(C)c4)nn23)nn1` [Compound 759], the “TAMRA EC1.5 (μM)” value is “A (EC1.5<1 μM)” and the Emax is less than 350%.

As to `CCOc1ccc(NC(=O)c2c(C)nc3ccc(-c4cccc(C)c4)nn23)nn1` [Compound 760], the “TAMRA EC1.5 (μM)” value is “A (EC1.5<1 μM)” and the Emax is less than 350%.

For the compound `CCOc1ccc(NC(=O)c2c(C)nc3ccc(-c4cccc(F)c4)nn23)nn1` [Compound 762], the “TAMRA EC1.5 (μM)” value is given as “B (EC1.5 1-25 μM)” and the Emax is less than 350%.

`Cc1nc2ccc(-c3ccccc3Br)nn2c1C(=O)Nc1cccnn1` [Compound 763]: the “TAMRA EC1.5 (μM)” value was “A (EC1.5<1 μM)” and the Emax was no less than 350%.

Regarding `Cc1ccc(NC(=O)c2c(C)nc3ccc(-c4ccccc4Br)nn23)nn1` [Compound 764], the “TAMRA EC1.5 (μM)” value was “A (EC1.5<1 μM)” and the Emax is no less than 350%.

Consider `COc1ccc(NC(=O)c2c(C)nc3ccc(-c4ccccc4Br)nn23)nn1` [Compound 765], for which the “TAMRA EC1.5 (μM)” value is recorded as “A (EC1.5<1 μM)” and the Emax is no less than 350%.

Consider `Cc1nn2ccc(-c3ccccc3C(F)(F)F)nc2c1C(=O)Nc1cncc(F)c1` [Compound 768], for which the “TAMRA EC1.5 (μM)” value is given as “A (EC1.5<1 μM)” and the Emax is no less than 350%.

As to `O=C(Nc1cnn2ccc(-c3ccccc3OC(F)(F)F)nc12)c1cccc(-n2cnnc2)n1` [Compound 769], the “TAMRA EC1.5 (μM)” value was “A (EC1.5<1 μM)” and the Emax was no less than 350%.

Turning to `CC(C)c1csc(C(=O)Nc2cnn3ccc(-c4ccccc4OC(F)(F)F)nc23)n1` [Compound 771], the “TAMRA EC1.5 (μM)” value is listed as “A (EC1.5<1 μM)” and the Emax is no less than 350%.

For the compound `Cc1nc2ccc(-c3ccccc3OC[C@H](O)CO)nn2c1C(=O)Nc1ccncn1` [Compound 774], the “TAMRA EC1.5 (μM)” value is “A (EC1.5<1 μM)” and the Emax was less than 350%.

As for `Cc1nc2ccc(-c3ccccc3OC[C@H](O)CO)nn2c1C(=O)Nc1cnccn1` [Compound 775], the “TAMRA EC1.5 (μM)” value was “A (EC1.5<1 μM)” and the Emax was no less than 350%.

For the compound `Cc1cc(C)nc(NC(=O)c2c(C)nn3ccc(-c4ccccc4C(F)(F)F)nc23)n1` [Compound 777], the “TAMRA EC1.5 (μM)” value was “A (EC1.5<1 μM)” and the Emax was no less than 350%.

As for `O=C(Nc1cnn2ccc(-c3ccccc3OC(F)(F)F)nc12)c1nc2c(s1)CCCC2` [Compound 780], the “TAMRA EC1.5 (μM)” value is “A (EC1.5<1 μM)” and the Emax is no less than 350%.

`O=C(Nc1cnn2ccc(-c3ccccc3OC(F)(F)F)nc12)c1nccs1` [Compound 781]: the “TAMRA EC1.5 (μM)” value is on record as “B (EC1.5 1-25 μM)” and the Emax was no less than 350%.

Consider `O=C(Nc1cnn2ccc(-c3ccccc3C(F)(F)F)nc12)c1cncc(OC[C@@H](O)CO)n1` [Compound 783], for which the “TAMRA EC1.5 (μM)” value is recorded as “A (EC1.5<1 μM)” and the Emax is no less than 350%.

As for `CCOc1nccc(NC(=O)c2c(C)nn3ccc(-c4ccccc4C(F)(F)F)nc23)n1` [Compound 786], the “TAMRA EC1.5 (μM)” value is on record as “A (EC1.5<1 μM)” and the Emax was no less than 350%.

Take `Cc1cc(NC(=O)c2c(C)nn3ccc(-c4ccccc4C(F)(F)F)nc23)nc(C)n1` [Compound 787]: the “TAMRA EC1.5 (μM)” value is given as “A (EC1.5<1 μM)” and the Emax is no less than 350%.

In the case of `Cc1nn2ccc(-c3ccccc3C(F)(F)F)nc2c1C(=O)Nc1ccncc1F` [Compound 789], the “TAMRA EC1.5 (μM)” value is on record as “A (EC1.5<1 μM)” and the Emax is no less than 350%.

As to `Cc1cc(C)nc(NC(=O)c2cnc3ccc(-c4ccccc4OC[C@H](O)CO)nn23)c1` [Compound 792], the “TAMRA EC1.5 (μM)” value was “A (EC1.5<1 μM)” and the Emax was no less than 350%.

With `COc1nccc(NC(=O)c2c(C)nn3ccc(-c4ccccc4C(F)(F)F)nc23)n1` [Compound 793, N-(2-methoxypyrimidin-4-yl)-2-methyl-5-(2-(trifluoromethyl)phenyl)pyrazolo[1,5-a]pyrimidine-3-carboxamide], the “TAMRA EC1.5 (μM)” value was “A (EC1.5<1 μM)” and the Emax is no less than 350%.

Take `Cc1cc(C(=O)Nc2cnn3ccc(-c4ccccc4C(F)(F)F)nc23)nc(C)n1` [Compound 795]: the “TAMRA EC1.5 (μM)” value is “A (EC1.5<1 μM)” and the Emax is no less than 350%.

Turning to `Cc1ccnc(NC(=O)c2c(C)nc3ccc(-c4cccc(OC[C@H](O)CO)c4)nn23)c1` [Compound 798], the “TAMRA EC1.5 (μM)” value is “A (EC1.5<1 μM)” and the Emax is no less than 350%.

Consider `Cc1cc(C)nc(C(=O)Nc2cnn3ccc(-c4ccccc4C(F)(F)F)nc23)n1` [Compound 801], for which the “TAMRA EC1.5 (μM)” value is given as “A (EC1.5<1 μM)” and the Emax is no less than 350%.

Consider `Cc1cccc(NC(=O)c2cnc3ccc(-c4ccccc4OC[C@H](O)CO)nn23)n1` [Compound 804], for which the “TAMRA EC1.5 (μM)” value is on record as “A (EC1.5<1 μM)” and the Emax is no less than 350%.

With `Cc1cc(NC(=O)c2cnc3ccc(-c4ccccc4OC[C@H](O)CO)nn23)cc(C)n1` [Compound 805], the “TAMRA EC1.5 (μM)” value was “A (EC1.5<1 μM)” and the Emax is no less than 350%.

With `CCOc1nccc(NC(=O)c2cnn3ccc(-c4ccccc4C(F)(F)F)nc23)n1` [Compound 807], the “TAMRA EC1.5 (μM)” value was “A (EC1.5<1 μM)” and the Emax is no less than 350%.
